Values after ≈ are worked out from the molar mass of the structure shown.
How the values were obtained:
Format in all cases: cell-based
[1] = system: methicillin-sensitive Staphylococcus epidermidis (MSSE); test: MIC, two-fold agar dilution (CLSI), clinical isolates
From the text: (§1) 1. The invention adopts the two-fold agar dilution method recommended by the operating procedure of antimicrobial susceptibility testing set by American Clinical and Laboratory Standards Institute (CLSI) to determine the Minimum Inhibitory Concentration (MIC) of the test samples against the tested strains.

[2] = system: methicillin-resistant Staphylococcus aureus (MRSA); test: as above
From the text: as §1

[3] = system: Enterococcus faecalis (EFA); test: as above
From the text: as §1

[4] = system: Enterococcus faecium (EFM); test: as above
From the text: as §1

[5] = system: methicillin-resistant Staphylococcus epidermidis (MRSE); test: as above
From the text: as §1

[6] = system: Escherichia coli (including ESBLs, non-ESBLs); test: as above
From the text: as §1

[7] = system: Moraxella catarrhalis (BCA); test: as above; conditions: for Anti-bacterial activity (MIC), strain BCA 14-10: clinical isolate BCA 14-10
From the text: as §1

[8] = system: Streptococcus pneoumoniae (SPN); test: as above
From the text: as §1

[9] = system: methicillin-sensitive Staphylococcus aureus (MSSA); test: as above
From the text: as §1

[10] = system: HCT-116 colorectal cancer cell line; test: CCK-8 proliferation inhibition; conditions: Homo sapiens, HCT-116, 72 h, concentration of 30 μM; 72 hours; CCK-8; read-out: HCT116 inhibition rate/%
Summary of the method: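 Proliferation over 72 hours of compound treatment was measured with CCK-8 against a 1‰ DMSO control.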

O=CN(O)C[C@@H](CC1CCCC1)C(=O)N1CC2(CC2)C[C@H]1C(=O)N1CCS(=O)(=O)CC1 [Example 35, N—((R)-2-(cyclopentylmethyl)-3-((S)-6-(1,1-dioxythiomorpholine-4-carbonyl)-5-azaspiro[2.4]heptane-5-yl)-3-propylcarbonyl)-N-hydroxyformamide]
MIC (anti-bacterial activity) ([1]; strain MSSE 15-3): 32 µg/mL (≈ 70.2 µM) | MIC (anti-bacterial activity) ([1]; strain MSSE 15-4): 32 µg/mL (≈ 70.2 µM) | MIC (anti-bacterial activity) ([1]; strain MSSE 15-5): 32 µg/mL (≈ 70.2 µM) | MIC (anti-bacterial activity) ([1]; strain MSSE 15-6): 32 µg/mL (≈ 70.2 µM) | MIC (anti-bacterial activity) ([2]; strain MRSA 15-1): 16 µg/mL (≈ 35.1 µM) | MIC (anti-bacterial activity) ([2]; strain MRSA 15-2): 32 µg/mL (≈ 70.2 µM) | MIC (anti-bacterial activity) ([2]; strain MRSA 15-3): 16 µg/mL (≈ 35.1 µM) | MIC (anti-bacterial activity) ([2]; strain MRSA 15-4): 32 µg/mL (≈ 70.2 µM) | MIC (anti-bacterial activity) ([3]; strain EFA 15-1): 32 µg/mL (≈ 70.2 µM) | MIC (anti-bacterial activity) ([3]; strain EFA 15-2): 32 µg/mL (≈ 70.2 µM) | MIC (anti-bacterial activity) ([3]; strain EFA 15-3): 32 µg/mL (≈ 70.2 µM) | MIC (anti-bacterial activity) ([3]; strain EFA 15-4): 32 µg/mL (≈ 70.2 µM) | MIC (anti-bacterial activity) ([3]; strain EFA 15-5): 32 µg/mL (≈ 70.2 µM) | MIC (anti-bacterial activity) ([3]; strain EFA 15-6): 32 µg/mL (≈ 70.2 µM) | MIC (anti-bacterial activity) ([3]; strain EFA 15-9): 32 µg/mL (≈ 70.2 µM) | MIC (anti-bacterial activity) ([4]; strain EFM 15-1): 16 µg/mL (≈ 35.1 µM) | MIC (anti-bacterial activity) ([4]; strain EFM 15-2): 16 µg/mL (≈ 35.1 µM) | MIC (anti-bacterial activity) ([4]; strain EFM 15-3): 16 µg/mL (≈ 35.1 µM) | MIC (anti-bacterial activity) ([4]; strain EFM 15-4): 16 µg/mL (≈ 35.1 µM) | MIC (anti-bacterial activity) ([4]; strain EFM 15-5): 16 µg/mL (≈ 35.1 µM) | MIC (anti-bacterial activity) ([4]; strain EFM 15-6): 16 µg/mL (≈ 35.1 µM) | MIC (anti-bacterial activity) ([5]; strain MRSE 15-1): 16 µg/mL (≈ 35.1 µM) | MIC (anti-bacterial activity) ([5]; strain MRSE 15-2): 32 µg/mL (≈ 70.2 µM) | MIC (anti-bacterial activity) ([5]; strain MRSE 15-3): 32 µg/mL (≈ 70.2 µM) | MIC (anti-bacterial activity) ([5]; strain MRSE 15-7): 32 µg/mL (≈ 70.2 µM) | MIC (anti-bacterial activity) ([6]; strain ECO+ 15-1): 32 µg/mL (≈ 70.2 µM) | MIC (anti-bacterial activity) ([6]; strain ECO+ 15-2): > 32 µg/mL | MIC (anti-bacterial activity) ([6]; strain ECO+ 15-3): > 32 µg/mL | MIC (anti-bacterial activity) ([6]; strain ECO+ 15-4): > 32 µg/mL | MIC (anti-bacterial activity) ([6]; strain ECO− 15-1): > 32 µg/mL | MIC (anti-bacterial activity) ([6]; strain ECO− 15-2): > 32 µg/mL | MIC (anti-bacterial activity) ([6]; strain ECO− 15-3): > 32 µg/mL | MIC (anti-bacterial activity) ([6]; strain ECO− 15-4): > 32 µg/mL | Anti-bacterial activity (MIC), strain BCA 14-10 [7]: 32 µg/mL | MIC (anti-bacterial activity) ([7]; strain BCA 14-1): 32 µg/mL (≈ 70.2 µM) | MIC (anti-bacterial activity) ([7]; strain BCA 14-4): 32 µg/mL (≈ 70.2 µM) | MIC (anti-bacterial activity) ([7]; strain BCA 14-5): 16 µg/mL (≈ 35.1 µM) | MIC (anti-bacterial activity) ([7]; strain BCA 14-6): 32 µg/mL (≈ 70.2 µM) | MIC (anti-bacterial activity) ([7]; strain BCA 14-7): 32 µg/mL (≈ 70.2 µM) | MIC (anti-bacterial activity) ([7]; strain BCA 14-8): 32 µg/mL (≈ 70.2 µM) | MIC (anti-bacterial activity) ([8]; strain SPN 16-2): 16 µg/mL (≈ 35.1 µM) | MIC (anti-bacterial activity) ([8]; strain SPN 16-4): 32 µg/mL (≈ 70.2 µM) | MIC (anti-bacterial activity) ([9]; strain MSSA 15-3): 32 µg/mL (≈ 70.2 µM) | MIC (anti-bacterial activity) ([9]; strain MSSA 15-4): 32 µg/mL (≈ 70.2 µM) | MIC (anti-bacterial activity) ([9]; strain MSSA 15-5): 32 µg/mL (≈ 70.2 µM) | MIC (anti-bacterial activity) ([9]; strain MSSA 15-6): 32 µg/mL (≈ 70.2 µM) | inhibition at 30 µM [10]: -1%

O=CN(O)C[C@@H](CC1CCCC1)C(=O)N1CC2(CC2)C[C@H]1C(=O)Nc1ccno1 [Example 37, (S)-5-((R)-3-cyclopentyl-2-((N-hydroxyformamido)methyl)propionyl)-N-(isoxazol-5-yl)-5-azaspiro[2.4]heptane-6-carboxamide]
MIC (anti-bacterial activity) ([1]; strain MSSE 15-3): 1 µg/mL (≈ 2.47 µM) | MIC (anti-bacterial activity) ([1]; strain MSSE 15-4): 1 µg/mL (≈ 2.47 µM) | MIC (anti-bacterial activity) ([1]; strain MSSE 15-5): 1 µg/mL (≈ 2.47 µM) | MIC (anti-bacterial activity) ([1]; strain MSSE 15-6): 1 µg/mL (≈ 2.47 µM) | MIC (anti-bacterial activity) ([2]; strain MRSA 15-1): 0.5 µg/mL (≈ 1.24 µM) | MIC (anti-bacterial activity) ([2]; strain MRSA 15-2): 1 µg/mL (≈ 2.47 µM) | MIC (anti-bacterial activity) ([2]; strain MRSA 15-3): 0.5 µg/mL (≈ 1.24 µM) | MIC (anti-bacterial activity) ([2]; strain MRSA 15-4): 0.2 µg/mL (≈ 0.494 µM) | MIC (anti-bacterial activity) ([3]; strain EFA 15-1): 4 µg/mL (≈ 9.89 µM) | MIC (anti-bacterial activity) ([3]; strain EFA 15-2): 4 µg/mL (≈ 9.89 µM) | MIC (anti-bacterial activity) ([3]; strain EFA 15-3): 4 µg/mL (≈ 9.89 µM) | MIC (anti-bacterial activity) ([3]; strain EFA 15-4): 4 µg/mL (≈ 9.89 µM) | MIC (anti-bacterial activity) ([3]; strain EFA 15-5): 4 µg/mL (≈ 9.89 µM) | MIC (anti-bacterial activity) ([3]; strain EFA 15-6): 4 µg/mL (≈ 9.89 µM) | MIC (anti-bacterial activity) ([3]; strain EFA 15-9): 4 µg/mL (≈ 9.89 µM) | MIC (anti-bacterial activity) ([4]; strain EFM 15-1): 2 µg/mL (≈ 4.94 µM) | MIC (anti-bacterial activity) ([4]; strain EFM 15-2): 2 µg/mL (≈ 4.94 µM) | MIC (anti-bacterial activity) ([4]; strain EFM 15-3): 2 µg/mL (≈ 4.94 µM) | MIC (anti-bacterial activity) ([4]; strain EFM 15-4): 2 µg/mL (≈ 4.94 µM) | MIC (anti-bacterial activity) ([4]; strain EFM 15-5): 1 µg/mL (≈ 2.47 µM) | MIC (anti-bacterial activity) ([4]; strain EFM 15-6): 2 µg/mL (≈ 4.94 µM) | MIC (anti-bacterial activity) ([5]; strain MRSE 15-1): 0.5 µg/mL (≈ 1.24 µM) | MIC (anti-bacterial activity) ([5]; strain MRSE 15-2): 1 µg/mL (≈ 2.47 µM) | MIC (anti-bacterial activity) ([5]; strain MRSE 15-3): 1 µg/mL (≈ 2.47 µM) | MIC (anti-bacterial activity) ([5]; strain MRSE 15-7): 1 µg/mL (≈ 2.47 µM) | MIC (anti-bacterial activity) ([6]; strain ECO+ 15-1): 32 µg/mL (≈ 79.1 µM) | MIC (anti-bacterial activity) ([6]; strain ECO+ 15-2): 32 µg/mL (≈ 79.1 µM) | MIC (anti-bacterial activity) ([6]; strain ECO+ 15-3): 32 µg/mL (≈ 79.1 µM) | MIC (anti-bacterial activity) ([6]; strain ECO+ 15-4): 32 µg/mL (≈ 79.1 µM) | MIC (anti-bacterial activity) ([6]; strain ECO− 15-1): 32 µg/mL (≈ 79.1 µM) | MIC (anti-bacterial activity) ([6]; strain ECO− 15-2): 32 µg/mL (≈ 79.1 µM) | MIC (anti-bacterial activity) ([6]; strain ECO− 15-3): 32 µg/mL (≈ 79.1 µM) | MIC (anti-bacterial activity) ([6]; strain ECO− 15-4): 32 µg/mL (≈ 79.1 µM) | Anti-bacterial activity (MIC), strain BCA 14-10 [7]: 3 µg/mL | MIC (anti-bacterial activity) ([7]; strain BCA 14-1): 2 µg/mL (≈ 4.94 µM) | MIC (anti-bacterial activity) ([7]; strain BCA 14-4): 2 µg/mL (≈ 4.94 µM) | MIC (anti-bacterial activity) ([7]; strain BCA 14-5): 2 µg/mL (≈ 4.94 µM) | MIC (anti-bacterial activity) ([7]; strain BCA 14-6): 2 µg/mL (≈ 4.94 µM) | MIC (anti-bacterial activity) ([7]; strain BCA 14-7): 3 µg/mL (≈ 7.42 µM) | MIC (anti-bacterial activity) ([7]; strain BCA 14-8): 2 µg/mL (≈ 4.94 µM) | MIC (anti-bacterial activity) ([8]; strain SPN 16-2): 0.5 µg/mL (≈ 1.24 µM) | MIC (anti-bacterial activity) ([8]; strain SPN 16-4): 4 µg/mL (≈ 9.89 µM) | MIC (anti-bacterial activity) ([9]; strain MSSA 15-3): 1 µg/mL (≈ 2.47 µM) | MIC (anti-bacterial activity) ([9]; strain MSSA 15-4): 1 µg/mL (≈ 2.47 µM) | MIC (anti-bacterial activity) ([9]; strain MSSA 15-5): 0.5 µg/mL (≈ 1.24 µM) | MIC (anti-bacterial activity) ([9]; strain MSSA 15-6): 1 µg/mL (≈ 2.47 µM) | inhibition at 30 µM [10]: 16%

Source: patent US10738028B2, “Spiro three-membered ring, spiro five-membered ring peptide deformylase inhibitor and use thereof in antibacteria and anti-tumor” (priority 2016, dated 2020)
